Laboratory results published in ChEMBL document CHEMBL1151619, “Structure and conformation of two new dolabellane-based diterpenes from Dictyota sp” (J Nat Prod, 1984).
The source made the active and inactive calls. The rule behind the calls is not given here.

Tested on: KB
Assay: Cytotoxicity against human KB cells
Type: functional, cell-based

## C=C(C)[C@@H]1CC[C@]2(C)C[C@H](OC(C)=O)/C(CO)=C/CC/C(C)=C/C[C@@H]12
  Activity: Active
